System: Plasmodium berghei
Assay: Luciferase/luciferin-expressing antifolate-resistant parasites were used to infect a culture of HepG2 cells that were pre-incubated with compounds. Infected hepatocytes emit light due to the luciferase reaction. Assay results are presented as the percent inhibition of light emission compared to control. […]
Format: functional
Settings: sporozoite; for IC90: read-out: LUCIFERASE INFECTION ASSAY - IC90
[1] = read-out: LUCIFERASE INFECTION ASSAY - IC50

Structure (SMILES) | IC90 [µM] | further results
CC1=CC(=O)N(c2ccc(F)c(Cl)c2)C1=O | > 13.8 | IC50 (HEPG2TOX_HILL_SLOPE 6.55, HEPG2TOX_R_SQUARED 0.196, PBLUC_HILL_SLOPE 2.8, PBLUC_R_SQUARED 0.561, read-out: LUCIFERASE INFECTION ASSAY - IC50): 8.94 µM
CC(C)(C)n1ncc(C(=O)NCCOc2ccccc2)c1C(F)(F)F | > 10 | IC50 (PBLUC_HILL_SLOPE 0.7, PBLUC_R_SQUARED 0.775, read-out: LUCIFERASE INFECTION ASSAY - IC50): 0.591 µM
OCc1cccc(-c2ccc3ncc(-c4cccc(Cl)c4)n3n2)c1 | 2.73 | IC50 (HEPG2TOX_HILL_SLOPE 1.23, HEPG2TOX_R_SQUARED 0.98, PBLUC_HILL_SLOPE 1.42, PBLUC_R_SQUARED 0.52, read-out: LUCIFERASE INFECTION ASSAY - IC50): 0.582 µM
O=C(Nc1cccc(C(F)(F)F)c1)c1ccc(-c2ccccc2F)cc1 | > 9.18 | IC50 [1]: > 9.18 µM
Cc1cccc(C2NC(=O)NC3=C2C(=O)N(Cc2ccc(F)cc2)C3)c1 (stereo not given) | > 10 | IC50 [1]: > 10 µM
CN1CCN(S(=O)(=O)c2ccc(N3CCC(c4nc5ccccc5s4)CC3)nc2)CC1 | > 10 | IC50 (PBLUC_HILL_SLOPE 13.7, PBLUC_R_SQUARED 0.493, read-out: LUCIFERASE INFECTION ASSAY - IC50): 9.47 µM
CCC(C)(C)NC(=O)CSc1nnc(/C=C/c2ccccc2C)[nH]1 | > 10 | IC50 [1]: > 10 µM
c1ccc(Oc2cccc(-c3ccc4nnc(-c5ccc6c(c5)OCO6)n4c3)c2)cc1 | > 10 | IC50 (PBLUC_HILL_SLOPE 1.92, PBLUC_R_SQUARED 0.18, read-out: LUCIFERASE INFECTION ASSAY - IC50): 8.29 µM
CCOc1ccc(OCC)c(S(=O)(=O)Oc2cccc3ccc(C)nc23)c1 | > 8.52 | IC50 (HEPG2TOX_HILL_SLOPE 2.15, HEPG2TOX_R_SQUARED 0.762, PBLUC_HILL_SLOPE 2.2, PBLUC_R_SQUARED 0.11, read-out: LUCIFERASE INFECTION ASSAY - IC50): 7.25 µM
NC(=O)c1ccc(-c2cc(-c3ccccc3)cnc2N)cc1 | 4.22 | IC50 (HEPG2TOX_HILL_SLOPE 7.43, HEPG2TOX_R_SQUARED 0.0328, PBLUC_HILL_SLOPE 16.6, PBLUC_R_SQUARED 0.439, read-out: LUCIFERASE INFECTION ASSAY - IC50): 3.7 µM
O=C(Nc1cccnc1)C1=COC2=NC(=O)N(Cc3ccccc3C(F)(F)F)CCN12 | > 10 | IC50 [1]: > 10 µM
CCC(C)NC(=O)c1c(NC(=O)c2ccc(OC)cc2)nc2ccc(C)cn12 (stereo not given) | > 8.67 | IC50 (HEPG2TOX_HILL_SLOPE 1.94, HEPG2TOX_R_SQUARED 0.651, PBLUC_HILL_SLOPE 14.9, PBLUC_R_SQUARED 0.0352, read-out: LUCIFERASE INFECTION ASSAY - IC50): 7.7 µM
CCOC(=O)c1c(NC(=O)C(C)N2CCN(C(=O)c3ccco3)CC2)sc2c1CCCC2 (stereo not given) | > 10 | IC50 (PBLUC_HILL_SLOPE 16.5, PBLUC_R_SQUARED 0.188, read-out: LUCIFERASE INFECTION ASSAY - IC50): 9.7 µM
O=C(Nc1ccc(-n2ccc(C(F)(F)F)n2)cc1)c1cccs1 | 3.61 | IC50 (PBLUC_HILL_SLOPE 1.9, PBLUC_R_SQUARED 0.777, read-out: LUCIFERASE INFECTION ASSAY - IC50): 1.14 µM
Cc1sc2ncnc(Sc3nnc(-c4cccs4)n3-c3ccccc3)c2c1C | 3.96 | IC50 (PBLUC_HILL_SLOPE 13.8, PBLUC_R_SQUARED 0.706, read-out: LUCIFERASE INFECTION ASSAY - IC50): 3.37 µM
CCN(CC)S(=O)(=O)c1cc([N+](=O)[O-])ccc1NN=CC1C(=O)N(c2ccc(C)cc2)C(=O)c2ccccc21 (stereo not given) | > 10 | IC50 (FFLUC_HILL_SLOPE 3.56, FFLUC_R_SQUARED 0.6, HEPG2TOX_HILL_SLOPE 2.69, HEPG2TOX_R_SQUARED 0.936, PBLUC_HILL_SLOPE 15.5, PBLUC_R_SQUARED 0.0701, read-out: LUCIFERASE INFECTION ASSAY - IC50): 9.71 µM
CN(C)C(=O)c1ccc(-c2cnc3cnc(-c4ccc(F)c(Cl)c4)cn23)cc1 | > 8.36 | IC50 [1]: > 8.36 µM
CN1C/C(=C/c2csnn2)C(=O)/C(=C/c2csnn2)C1 | 4.3 | IC50 (HEPG2TOX_HILL_SLOPE 8.98, HEPG2TOX_R_SQUARED 0.932, PBLUC_HILL_SLOPE 14.4, PBLUC_R_SQUARED 0.582, read-out: LUCIFERASE INFECTION ASSAY - IC50): 3.69 µM
CN(CC(=O)Nc1ccc(N2CCOCC2)cc1)Cn1nc(-c2cccs2)n(CC2CCCO2)c1=S (stereo not given) | > 10 | IC50 [1]: > 10 µM
O=C(Nc1nc2ccc(Oc3ccccc3)cc2s1)C1=COCCO1 | > 10 | IC50 (PBLUC_HILL_SLOPE 0.789, PBLUC_R_SQUARED 0.599, read-out: LUCIFERASE INFECTION ASSAY - IC50): 5.28 µM

Structure (SMILES) | IC90 [µM] | further results
CC1(C)CCc2cc(/C=N/C(C#N)C(=N)C#N)ccc2O1 (stereo not given) | > 11.8 | IC50 (FFLUC_HILL_SLOPE 1.61, FFLUC_R_SQUARED 0.207, read-out: LUCIFERASE INFECTION ASSAY - IC50): > 11.8 µM
Cc1cc(=O)c(C(=O)Nc2cc(C(F)(F)F)ccc2N2CCCCC2)nn1-c1ccccc1Cl | > 10 | IC50 [1]: > 10 µM
O=C(O)c1cnc2cc(Cl)cc(Cl)c2c1O | > 12.8 | IC50 (FFLUC_HILL_SLOPE 2.26, FFLUC_R_SQUARED 0.266, PBLUC_HILL_SLOPE 1.77, PBLUC_R_SQUARED 0.584, read-out: LUCIFERASE INFECTION ASSAY - IC50): 8.35 µM
Cc1ccc(-c2nnc(SCC(=O)Nc3ccc(S(=O)(=O)N4CCCC4)cc3)[nH]2)cc1 | > 10 | IC50 [1]: > 10 µM
Cc1cc(C(=O)OCc2ccc(-n3nc(C)cc3C)cc2)c2ccccc2n1 | 4.21 | IC50 (HEPG2TOX_HILL_SLOPE 1.96, HEPG2TOX_R_SQUARED 0.0908, PBLUC_HILL_SLOPE 15.9, PBLUC_R_SQUARED 0.28, read-out: LUCIFERASE INFECTION ASSAY - IC50): 3.66 µM
CN1C(=O)N(Cc2ccc3ccccc3c2)C(=O)C12CCN(Cc1cnn(-c3ccc(F)cc3)c1)CC2 | 2.54 | IC50 (HEPG2TOX_HILL_SLOPE 1.74, HEPG2TOX_R_SQUARED 0.906, PBLUC_HILL_SLOPE 10.4, PBLUC_R_SQUARED 0.489, read-out: LUCIFERASE INFECTION ASSAY - IC50): 2.06 µM
CCCCn1nc(C(=O)Nc2nc(-c3ccc(CCNC(C)=O)cc3)cs2)c2ccccc2c1=O | > 10 | IC50 [1]: > 10 µM
CN(C)c1c(/C=C2\C(=O)Nc3ccccc32)cc(/C=C2/C(=O)Nc3ccccc32)c(N(C)C)c1C#N | 4.13 | IC50 (FFLUC_HILL_SLOPE 3.06, FFLUC_R_SQUARED 0.454, HEPG2TOX_HILL_SLOPE 1.28, HEPG2TOX_R_SQUARED 0.858, PBLUC_HILL_SLOPE 2.4, PBLUC_R_SQUARED 0.768, read-out: LUCIFERASE INFECTION ASSAY - IC50): 1.65 µM
Cc1ccc(COC(=O)c2c(Cl)nc3sccn23)cc1 | 0.397 | IC50 (FFLUC_HILL_SLOPE 1.77, FFLUC_R_SQUARED 0.868, HEPG2TOX_HILL_SLOPE 1.9, HEPG2TOX_R_SQUARED 0.904, PBLUC_HILL_SLOPE 1.95, PBLUC_R_SQUARED 0.73, read-out: LUCIFERASE INFECTION ASSAY - IC50): 0.129 µM
O=[N+]([O-])c1ccc2c(c1)S(=O)(=O)CC2Sc1cccs1 (stereo not given) | > 10.1 | IC50 (FFLUC_HILL_SLOPE 0.919, FFLUC_R_SQUARED 0.527, PBLUC_HILL_SLOPE 1.82, PBLUC_R_SQUARED 0.11, read-out: LUCIFERASE INFECTION ASSAY - IC50): > 10.1 µM
Cc1ccc(C(=O)C(=O)Nc2cc(S(=O)(=O)N3CCCCC3)ccc2OC(C)C)cc1 | > 10 | IC50 (FFLUC_HILL_SLOPE 11.8, FFLUC_R_SQUARED 0.613, read-out: LUCIFERASE INFECTION ASSAY - IC50): > 10 µM
CCOC(=O)C1=C(C)NC(C)=C(C(=O)OCC)C1C(=O)OCC(=O)Nc1c(Br)cc(C)cc1Br | > 10 | IC50 (HEPG2TOX_HILL_SLOPE 0.766, HEPG2TOX_R_SQUARED 0.947, PBLUC_HILL_SLOPE 2.01, PBLUC_R_SQUARED 0.575, read-out: LUCIFERASE INFECTION ASSAY - IC50): 4.48 µM
CCN1C(=O)N(CCN(C)C)C(=O)C12CCN(Cc1ccc3c(c1)c1ccccc1n3CC)CC2 | 6.84 | IC50 (PBLUC_HILL_SLOPE 12.4, PBLUC_R_SQUARED 0.445, read-out: LUCIFERASE INFECTION ASSAY - IC50): 5.73 µM
O=C(Nc1cc(-c2cccs2)nn1-c1ccc(I)cc1)C1CCC1 | > 7.34 | IC50 (PBLUC_HILL_SLOPE 12.7, PBLUC_R_SQUARED 0.261, read-out: LUCIFERASE INFECTION ASSAY - IC50): 6.21 µM
C/C(=N\O)c1cnc(-c2ccccc2)s1 | 14.8 | IC50 (HEPG2TOX_HILL_SLOPE 1.93, HEPG2TOX_R_SQUARED 0.937, PBLUC_HILL_SLOPE 2.91, PBLUC_R_SQUARED 0.0759, read-out: LUCIFERASE INFECTION ASSAY - IC50): 6.95 µM
O=C(CCc1c(-c2ccc(F)cc2)[nH]c2ccc(F)cc12)N1CCN(c2ccncc2)CC1 | 8.48 | IC50 (PBLUC_HILL_SLOPE 5.15, PBLUC_R_SQUARED 0.285, read-out: LUCIFERASE INFECTION ASSAY - IC50): 5.53 µM
O=C1C=CC(=O)N1Cc1ccccc1 | > 17.6 | IC50 (HEPG2TOX_HILL_SLOPE 16.7, HEPG2TOX_R_SQUARED 0.468, read-out: LUCIFERASE INFECTION ASSAY - IC50): > 17.6 µM
N#C/C(=C1/SC=C(c2ccc(-c3ccccc3)cc2)N1c1ccccc1)c1nnc2n1CCCCC2 | 3.6 | IC50 (HEPG2TOX_HILL_SLOPE 7.81, HEPG2TOX_R_SQUARED 0.359, PBLUC_HILL_SLOPE 26.3, PBLUC_R_SQUARED 0.88, read-out: LUCIFERASE INFECTION ASSAY - IC50): 3.31 µM
COc1cccc(CC(=O)N2C[C@H](OC)C[C@H]2C(=O)NCC2CCCCC2)c1 | > 8.49 | IC50 [1]: > 8.49 µM
CC1(C)CC(=O)C=C(SCCS(=O)(=O)c2ccc(Cl)cc2)S1 | > 8.75 | IC50 [1]: > 8.75 µM

— ChEMBL document CHEMBL4483862, “Open-source discovery of chemical leads for next-generation chemoprotective antimalarials” (2018)
